Values after ≈ are worked out from the molar mass of the structure shown. Values joined by “and” are separate entries in the source; they are usually repeats but may differ in a detail not shown here. Equal entries are not always repeated. Where two headings read alike, the source gives them in different places.
Tests used:
[1] = system: Enterobacterales expressing class D oxacillinases (OXA-48/48-like); experiment: organism not typed; format: cell-based, E. coli, K. pneumoniae; details: K. pneumoniae SI-C17 (OXA-48)
[2] = system: isogenic strains of E. coli expressing Ambler class A, B, C, and D enzymes; experiment: microbe, parasite or virus in culture; format: cell-based, Escherichia coli
E. coli ESBL4 (CTX-M-15) [3] = experiment: Broth microdilution MIC; format: cell-based; details: Escherichia coli
[4] = system: E. cloacae ECL01 (TEM-72, ACT-1, P99AmpC); experiment: Broth microdilution MIC; format: cell-based; details: Enterobacter cloacae
[5] = system: K. pneumoniae ATCC BAA-1705 (KPC-2); experiment: Broth microdilution MIC; format: cell-based; details: Klebsiella pneumoniae, ATCCBAA1705
[6] = system: K. pneumoniae 752286 (OXA-48); experiment: Broth microdilution MIC; format: cell-based; details: Klebsiella pneumoniae
[7] = system: E. cloacae ECL01 (TEM-72, ACT-1, P99AmpC); experiment: 24-h time-kill assay; format: cell-based; details: Enterobacter cloacae; lowest concentration with ≥3-log10 CFU/ml reduction at 24 h; read-out: MBC
Description: (§1) In vitro antibacterial time-kill assay. […] Time-kill assays were performed in 14 ml glass tubes or deep-well storage plates with a bacterial inoculum in CAMHB of 5 × 10^5 CFU/ml. The tubes/plates were incubated at 37°C with shaking at 200 rpm, and aliquots were drawn at six time points (0, 2, 4, 6, 8, and 24 h) to conduct 0.5 log10 dilutions in CAMHB in 96-well plates that were incubated overnight at 37°C and used to ascertain viable bacterial counts. The lowest quantifiable amount by this method is 2 log10 CFU/ml.

E. coli ESBL4 (CTX-M-15) [8] = experiment: 24-h time-kill assay; format: cell-based
Description: as §1

[9] = system: K. pneumoniae 752286 (OXA-48); experiment: 24-h time-kill assay; format: cell-based; details: Klebsiella pneumoniae, 24 h
Description: as §1

[10] = system: K. pneumoniae ATCC BAA-1705 (KPC-2); experiment: 24-h time-kill assay; format: cell-based; details: Klebsiella pneumoniae, ATCCBAA1705; lowest concentration with ≥3-log10 CFU/ml reduction at 24 h; read-out: MBC
Description: as §1

[11] = system: Enterobacterales expressing class C cephalosporinases
[12] = system: Enterobacterales expressing class C cephalosporinases; experiment: organism not typed

With `Nc1nc(/C(=C/CC(=O)O)C(=O)N[C@@H]2C(=O)N3C(C(=O)O)=CCS[C@H]23)cs1` [CTB, ceftibuten] the MIC [1] was no less than 64 µg/mL, the “Fold increase in MIC compared to vector control” value (“Fold increase in MIC” for short) [2] was 16 and 32 and the “Fold increase in MIC” value ([2]; E. coli expressing ACT-17 (class C), inhibitor fixed at 4 μg/ml) was 1,024. The “Fold increase in MIC” value ([2]; E. coli expressing CMY-2 (class C), inhibitor fixed at 4 μg/ml) was 1,024, the “Fold increase in MIC” value ([2]; E. coli expressing CMY-42 (class C), inhibitor fixed at 4 μg/ml) was ≥1,024 and the “Fold increase in MIC” value ([2]; E. coli expressing CTX-M-15 (class A), inhibitor fixed at 4 μg/ml) was 64. The “Fold increase in MIC” value ([2]; E. coli expressing GES-5 (class A), inhibitor fixed at 4 μg/ml) was 8, the “Fold increase in MIC” value ([2]; E. coli expressing NDM-1 (class B), inhibitor fixed at 4 μg/ml) was ≥1,024 and the “Fold increase in MIC” value ([2]; E. coli expressing OXA-23 (class D), inhibitor fixed at 4 μg/ml) was 2. For the same molecule, the “Fold increase in MIC” value ([2]; E. coli expressing OXA-48 (class D), inhibitor fixed at 4 μg/ml) was 4, the “Fold increase in MIC” value ([2]; E. coli expressing OXA-163 (class D), inhibitor fixed at 4 μg/ml) was 32 and the “Fold increase in MIC” value ([2]; E. coli expressing OXA-181 (class D), inhibitor fixed at 4 μg/ml) was 2. For the same molecule, the “Fold increase in MIC” value ([2]; E. coli expressing P99/AmpC (class C), inhibitor fixed at 4 μg/ml) was ≥1,024, the “Fold increase in MIC” value ([2]; E. coli expressing PER-1 (class A), inhibitor fixed at 4 μg/ml) was 1,024 and the “Fold increase in MIC” value ([2]; E. coli expressing SHV-5 (class A), inhibitor fixed at 4 μg/ml) was 128. For the same molecule, the “Fold increase in MIC” value ([2]; E. coli expressing SHV-12 (class A), inhibitor fixed at 4 μg/ml) was 256, the “Fold increase in MIC” value ([2]; E. coli expressing TEM-10 (class A), inhibitor fixed at 4 μg/ml, modal MIC, 4 replicates) was 4 and the “Fold increase in MIC” value ([2]; E. coli expressing VEB-9 (class A), inhibitor fixed at 4 μg/ml) was ≥1,024. The MIC ([2]; Escherichia coli, read-out: Vector control MIC) was 1 µg/mL (≈ 2.44 µM), the MIC (E. coli ESBL4 (CTX-M-15) [3]) was 32 µg/mL (≈ 78 µM) and the MIC [4] was 64 µg/mL (≈ 156 µM). It also gave an MIC [5] of 16 µg/mL (≈ 39 µM), an MIC [6] of 128 µg/mL (≈ 312 µM) and an MBC [7] greater than 32 µg/mL. The MBC (E. coli ESBL4 (CTX-M-15) [8]; Escherichia coli, lowest concentration with ≥3-log10 CFU/ml reduction at 24 h, read-out: MBC) was greater than 32 µg/mL, the “outcome of 24-h time-kill assay” value (E. coli ESBL4 (CTX-M-15) [8]; Fig. 3a, CTB 2 μg/ml with BLI at 4 μg/ml, CTB alone 8 μg/ml, amoxicillin 8/clavulanic acid 4 μg/ml, penems 2 μg/ml) was “initial killing, but the strains grew to control levels by 24 h” and the MBC [9] was no less than 128 µg/mL. For the same molecule, the MBC [10] was 16 µg/mL (≈ 39 µM), the MIC90 ([11]; 25 isolates, BLI fixed at 4 μg/ml, AMC 2:1) was no less than 64 µg/mL and the MIC ([11]; C. freundii 134390 (AmpC, TEM-1)) was 4 µg/mL (≈ 9.75 µM). The MIC ([11]; E. aerogenes 110099 (AmpC, SHV-12)) was 32 µg/mL (≈ 78 µM), the MIC ([11]; E. aerogenes 111707 (AmpC, TEM-1)) was 2 µg/mL (≈ 4.87 µM) and the MIC ([11]; E. aerogenes 111902 (AmpC, TEM-1)) was no less than 64 µg/mL. The MIC ([11]; E. coli 128 (AmpC, SHV-12, TEM-1, Toho-2)) was 2 µg/mL (≈ 4.87 µM), the MIC ([11]; E. coli 3102 (AmpC, CTX-M-15, TEM-1)) was 32 µg/mL (≈ 78 µM) and the MIC ([11]; E. coli CH1 (AmpC, CTX-M-15, SHV-1, SHV-5, TEM-1)) was no less than 64 µg/mL. It also gave an MIC ([11]; E. coli EC469 (AmpC, SHV-12, TEM-1)) of 2 µg/mL (≈ 4.87 µM), an MIC ([11]; E. coli J53 (AmpC, SHV-5, TEM-1)) of 8 µg/mL (≈ 19.5 µM) and an MIC ([11]; E. coli SI-P026TC (CMY-2, TEM-1)) of no less than 64 µg/mL. It also gave an MIC ([11]; E. coli SI-PO26 (AmpC, CMY-2, TEM-1)) of no less than 64 µg/mL, an MIC ([11]; K. pneumoniae 129032 (MOX-2, SHV-12, TEM-1)) of 16 µg/mL (≈ 39 µM) and an MIC ([11]; K. pneumoniae 178279 (AmpC, SHV-12, TEM-1)) of 8 µg/mL (≈ 19.5 µM). For the same molecule, the MIC ([11]; K. pneumoniae 212027 (AmpC, FOX-5, TEM-1)) was 16 µg/mL (≈ 39 µM), the MIC ([11]; K. pneumoniae 217917 (CMY-2, TEM-1)) was 8 µg/mL (≈ 19.5 µM) and the MIC ([11]; K. pneumoniae 301313 (AmpC, SHV-12, TEM-1)) was no less than 64 µg/mL. For the same molecule, the MIC ([11]; K. pneumoniae 398845 (CMY-2, SHV-12, TEM-1)) was 16 µg/mL (≈ 39 µM), the MIC ([11]; K. pneumoniae SI-F100 (CMY-2, SHV-5, TEM-1)) was 2 µg/mL (≈ 4.87 µM) and the MIC ([11]; P. mirabilis SI-F014 (AmpC, TEM-72)) was no less than 64 µg/mL. It also gave an MIC ([11]; S. marcescens 132253 (AmpC, CTX-M-3, OXA-1, SHV-12, TEM-1)) of no less than 64 µg/mL, an MIC ([11]; S. marcescens 134434 (AmpC, SHV-12, TEM-1)) of 32 µg/mL (≈ 78 µM) and an MIC ([11]; S. marcescens 142397 (AmpC, SHV-7, TEM-1)) of no less than 64 µg/mL. It also gave an MIC ([11]; S. marcescens 156212 (AmpC, SHV-12, TEM-1)) of 8 µg/mL (≈ 19.5 µM), an MIC ([11]; S. marcescens 192478 (AmpC, SHV-12, TEM-1)) of 8 µg/mL (≈ 19.5 µM) and an MIC ([11]; S. marcescens 218068 (AmpC, SHV-7, TEM-1)) of 32 µg/mL (≈ 78 µM). For the same molecule, the MIC50 [12] was 16 µg/mL (≈ 39 µM) and the MIC90 [12] was no less than 64 µg/mL.

From article PMC8284453 (Antimicrobial Agents and Chemotherapy, 2021)
